# Earlier results in patent US9988396B2, “Oxaziridine compound and production method thereof” (SEED RESEARCH INSTITUTE CO., LTD., priority 2016, dated 2018).
# Tests used:
# [1] = tested on: pathogens of candidiasis; settings: statement in background, from patent document 1 (WO2015/030197)
# [2] = tested on: PANC-1 pancreas cancer cell
# [3] = tested on: HepG2 liver cancer cell
smiles,measurement,setting,value
CC=C(Cc1ccccc1)C12CC(O)CCN1O2 (stereo not drawn) [Kakeromycin],antifungal activity / antibacterial activity against pathogens of candidiasis,[1],strong antibacterial activity
same,cytotoxicity,[2],shows cytotoxicity
same,cytotoxicity,[3],shows cytotoxicity
